Assay results: PubChem BioAssay (NCI)
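Grown in 96-well plates, cells were treated for 48 hours with each compound at five concentrations. Insufficient inhibition: endpoint recorded as highest concentration tested. The concentration for full growth arrest is given as TGI.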

Tests used:
Test in all cases: NCI anticancer screen, dose series, 48 h
[1] = tested on: OVCAR-8 ovarian
[2] = tested on: COLO 205 colon
[3] = tested on: PC-3 prostate
[4] = tested on: HS 578T breast
[5] = tested on: RXF 393 renal
[6] = tested on: OVCAR-4 ovarian
[7] = tested on: U251 CNS
[8] = tested on: CCRF-CEM leukemia
[9] = tested on: HCC-2998 colon
[10] = tested on: MCF7 breast
[11] = tested on: SW-620 colon
[12] = tested on: IGROV1 ovarian
[13] = tested on: 786-0 renal
[14] = tested on: MDA-MB-231 breast
[15] = tested on: A549 NSCLC
[16] = tested on: UACC-62 melanoma
[17] = tested on: SR leukemia
[18] = tested on: ACHN renal
[19] = tested on: SN12C renal
[20] = tested on: SF-268 CNS
[21] = tested on: SNB-75 CNS
[22] = tested on: NCI-H522 lung
[23] = tested on: KM12 colon
[24] = tested on: MDA-MB-435
[25] = tested on: OVCAR-5 ovarian
[26] = tested on: NCI-H226 lung
[27] = tested on: SK-MEL-28 melanoma
[28] = tested on: HOP-92 NSCLC
[29] = tested on: HCT-15 colon
[30] = tested on: NCI-H460 lung
[31] = tested on: HOP-62 NSCLC
[32] = tested on: EKVX NSCLC
[33] = tested on: TK-10 renal
[34] = tested on: SF-295 CNS
[35] = tested on: MDA-N
[36] = tested on: NCI/ADR-RES ovarian
[37] = tested on: HCT-116 colon
[38] = tested on: CAKI-1 renal
[39] = tested on: SK-OV-3 ovarian
[40] = tested on: OVCAR-3 ovarian
[41] = tested on: DU-145 prostate
[42] = tested on: NCI-H23 lung
[43] = tested on: SNB-19 CNS
[44] = tested on: UACC-257 melanoma
[45] = tested on: UO-31 renal
[46] = tested on: HL-60(TB) leukemia
[47] = tested on: SK-MEL-5 melanoma
[48] = tested on: SK-MEL-2 melanoma
[49] = tested on: MOLT-4 leukemia
[50] = tested on: M14 melanoma
[51] = tested on: BT-549 breast
[52] = tested on: HT29 colon
[53] = tested on: SF-539 CNS
[54] = tested on: K-562 leukemia
[55] = tested on: T-47D breast
[56] = tested on: RPMI-8226 leukemia
[57] = tested on: MALME-3M melanoma
[58] = tested on: LOX IMVI melanoma
[59] = tested on: A498 renal

SMILES: CC(O)CCCCC(O)CCC[C@H](O)[C@H]1CCC([C@H]2CCC([C@@H](O)CCCCCCCCCCCCC3=C[C@H](C)OC3=O)O2)O1 (some centres undefined)
- TGI [1]: 21.7 µM
- TGI [2]: 23.7 µM
- TGI [3]: 21.2 µM
- TGI [4]: 29 µM
- TGI [5]: 22.5 µM
- TGI [6]: 25.9 µM
- TGI [7]: 20.6 µM
- TGI [8]: 31.7 µM
- TGI [9]: 23.9 µM
- TGI [10]: 16.3 µM
- TGI [11]: 23.4 µM
- TGI [12]: 21.1 µM
- TGI [13]: 25.9 µM
- TGI [14]: 21.6 µM
- TGI [15]: 17.6 µM
- TGI [16]: 21 µM
- TGI [17]: 20.5 µM
- TGI [18]: 21.1 µM
- TGI [19]: 22.9 µM
- TGI [20]: 22.4 µM
- TGI [21]: 18.9 µM
- TGI [22]: 16.7 µM
- TGI [23]: 16.2 µM
- TGI [24]: 18.5 µM
- TGI [25]: 22 µM
- TGI [26]: 19.5 µM
- TGI [27]: 23.9 µM
- TGI [28]: 21.6 µM
- TGI [29]: 25.5 µM
- TGI [30]: 18.1 µM
- TGI [31]: 20.7 µM
- TGI [32]: 17.4 µM
- TGI [33]: 19.6 µM
- TGI [34]: 18.7 µM
- TGI [35]: 22 µM
- TGI [36]: 15.4 µM
- TGI [37]: 15.5 µM
- TGI [38]: 21.1 µM
- TGI [39]: 22.1 µM
- TGI [40]: 19.1 µM
- TGI [41]: 23.2 µM
- TGI [42]: 19.5 µM
- TGI [43]: 20.2 µM
- TGI [44]: 20.7 µM
- TGI [45]: 19 µM
- TGI [46]: 26.9 µM
- TGI [47]: 17.2 µM
- TGI [48]: 18.3 µM
- TGI [49]: 20.1 µM
- TGI [50]: 21.4 µM
- TGI [51]: 21.3 µM
- TGI [52]: 20.7 µM
- TGI [53]: 20.6 µM

SMILES: O=[N+]([O-])/C(C(Cl)=C(Cl)Cl)=C(/Nc1ccccc1)SCc1ccccc1
- TGI [1]: 34.8 µM
- TGI [2]: 42.4 µM
- TGI [3]: 49.4 µM
- TGI [4]: 75.5 µM
- TGI [5]: 35.5 µM
- TGI [6]: 66.8 µM
- TGI [7]: 34.6 µM
- TGI [8]: 35.5 µM
- TGI [9]: 45 µM
- TGI [11]: 49 µM
- TGI [12]: 39.9 µM
- TGI [13]: 31.1 µM
- TGI [14]: 36.4 µM
- TGI [15]: 33.5 µM
- TGI [16]: 44.6 µM
- TGI [17]: 52.3 µM
- TGI [18]: 77.4 µM
- TGI [19]: 44.2 µM
- TGI [20]: 43.4 µM
- TGI [54]: 49.9 µM
- TGI [22]: 47.1 µM
- TGI [23]: 32.5 µM
- TGI [24]: 31.7 µM
- TGI [55]: > 100 µM
- TGI [25]: 41.2 µM
- TGI [26]: 44.6 µM
- TGI [27]: 39.2 µM
- TGI [28]: 60.5 µM
- TGI [29]: 29.7 µM
- TGI [30]: 42.8 µM
- TGI [56]: 37.7 µM
- TGI [31]: 36.1 µM
- TGI [32]: 48.6 µM
- TGI [33]: 60.6 µM
- TGI [34]: 90 µM
- TGI [35]: 33.9 µM
- TGI [36]: 31.1 µM
- TGI [57]: 30.1 µM
- TGI [37]: 30.2 µM
- TGI [38]: 68.7 µM
- TGI [39]: > 100 µM
- TGI [40]: 28.7 µM
- TGI [41]: 59.4 µM
- TGI [58]: 39.1 µM
- TGI [42]: 40.5 µM
- TGI [43]: 58.4 µM
- TGI [44]: 39.5 µM
- TGI [45]: 39 µM
- TGI [46]: 40.2 µM
- TGI [47]: 37 µM
- TGI [48]: 44.7 µM
- TGI [59]: 46.7 µM
- TGI [49]: 37.3 µM
- TGI [50]: 30.6 µM
- TGI [52]: 66.1 µM
- TGI [53]: 38.8 µM
